In patent EP0770601A1, “PROPENONE DERIVATIVES” (Kyowa Hakko Kogyo Co., Ltd., priority 1995, dated 1996):

What was measured:
[1] = test system: HeLa S3 cells; experiment: HeLa S3 cell growth inhibition test (neutral red staining); format: cell-based; conditions: Homo sapiens, 72 hours culture with test compound, neutral red absorbance at 550 nm
Protocol: Test Example 1: HeLa S3 Cell Growth Inhibition Test
Each 0.1 ml of HeLa S3 cells which had been prepared to 3 x 10^4 cells/ml using a medium consisted of MEM medium, 10% fetal bovine serum and 2 mM glutamine was distributed in each well of 96 well-microtiter plate. HeLa S3 was cultured at 37°C in a CO2 incubator for one night, each 0.05 ml of test compounds which had been appropriately diluted with the culture solution was added thereto and the mixture was cultured at 37°C for 72 hours in a CO2 incubator. Supernatant was removed, each 0.1 ml of the culture solution containing 0.02% neutral red was added to the residue, the mixture was incubated at 37°C for one hour in a CO2 incubator and the cells were stained. Supernatant was removed and the residue was washed once with physiological saline. Then, the pigment was extracted with 0.001 N hydrochloric acid/30% ethanol and the absorbance at 550 nm was measured by a microplatereader. A concentration of the test compound (IC50) at which the growth of cell is inhibited by 50% was calculated by comparing the absorbance of non-treated cells and that of cells treated with a predetermined concentration of the test compound.

[2] = test system: P388 mouse leukemia; experiment: Effect upon P388 ascites tumor (increased life span); format: in vivo; conditions: consecutive 5 days from 24 hours after implantation of the tumor, male CDF1 mice
Protocol: Test Example 2: Effect upon P388 Ascites Tumor […] The resultant suspension was administered once 24 hours after implantation of the tumor, or repeatedly for consecutive 5 days from 24 hours after implantation of the tumor. The average survival day (T) in a group was calculated from the survival days of the respective mice in the group administered with the test compound at each dose. On the other hand, the average survival day (C) of a group which was not administered was measured, and the increased life span [ILS (%)] was calculated according to the following equation: [(T - C)/C] x 100 (%) [formula]

IC50 [1] | Compound | also measured
9.4 nM | COc1cc(C(=O)C(C)=Cc2c[nH]c3ccccc23)cc(OC)c1OCC(C)C [Compound 6, 3-(Indol-3-yl)-1-(4-isobutyloxy-3,5-dimethoxyphenyl)-2-methyl-2-propen-1-one] | ILS (%) [Dose (mg/kg)] five consec. admin. ([2]; dose 3.1 mg/kg): 43 ( 3.1) %
18 nM | COc1cc(C(=O)C(C)=Cc2c[nH]c3cc(C)ccc23)cc(OC)c1OCC(C)C [Compound 15, 1-(4-Isobutyloxy-3,5-dimethoxyphenyl)-2-methyl-3-(6-methylindol-3-yl)-2-methyl-2-propen-1-one] | 
6.2 nM | CCOc1c(OC)cc(C(=O)C(C)=Cc2c[nH]c3cc(CC)ccc23)cc1OC [Compound 16, 1-(4-Ethoxy-3,5-dimethoxyphenyl)-3-(6-ethylindol-3-yl)-2-methyl-2-propen-1-one] | 
6.7 nM | CCOc1c(OC)cc(C(=O)C(C)=Cc2c[nH]c3cc(C)ccc23)cc1OC [Compound 11, 1-(4-Ethoxy-3,5-dimethoxyphenyl)-2-methyl-3-(6-methylindol-3-yl)-2-propen-1-one] | 
5.2 nM | CCCOc1c(OC)cc(C(=O)C(C)=Cc2c[nH]c3cc(C)ccc23)cc1OC [Compound 19, 1-(3,5-Dimethoxy-4-propoxyphenyl)-2-methyl-3-(6-methylindol-3-yl)-2-propen-1-one] | 
6.1 nM | COc1cc(C(=O)C(C)=Cc2c[nH]c3ccccc23)cc2c1OCO2 [Compound 8, 3-(Indol-3-yl)-1-(3-methoxy-4,5-methylenedioxyphenyl)-2-methyl-2-propen-1-one] | ILS (%) [Dose (mg/kg)] five consec. admin. ([2]; dose 6.3 mg/kg): 50 ( 6.3) %
64 nM | CCc1c(OC)cc(C(=O)C(C)=Cc2c[nH]c3ccccc23)cc1OC [Compound 7, 1-(4-Ethyl-3-dimethoxyphenyl)-3-(indol-3-yl)-2-methyl-2-propen-1-one] | ILS (%) [Dose (mg/kg)] five consec. admin. ([2]; dose 25 mg/kg): 40 ( 25) %
22 nM | CCOc1cc(C(=O)C(C)=Cc2c[nH]c3ccccc23)cc(OCC)c1OCC [Compound 4, 3-(Indol-3-yl)-2-methyl-1-(3,4,5-triethoxyphenyl)-2-propen-1-one] | 
6.1 nM | CCCCOc1c(OC)cc(C(=O)C(C)=Cc2c[nH]c3cc(C)ccc23)cc1OC [Compound 20, 1-(4-Buthoxy-3,5-dimethoxyphenyl)-2-methyl-3-(6-methylindol-3-yl)-2-propen-1-one] | 
22 nM | COc1ccc(C(=O)C(C)=Cc2c[nH]c3ccccc23)c(OC)c1OC [Compound 24, 3-(Indol-3-yl)-2-methyl-1-(2,3,4-trimethoxyphenyl)-2-propen-1-one] | 
3.2 nM | CCOc1cc(C(=O)C(C)=Cc2c[nH]c3ccccc23)cc(OC)c1OC [Compound 9, 1-(5-Ethoxy-3,4-dimethoxyphenyl)-3-(indol-3-yl)-2-methyl-2-propen-1-one] | 
6.3 nM | CCOc1c(OC)cc(C(=O)C(C)=Cc2c[nH]c3cc(Cl)ccc23)cc1OC [Compound 18, 3-(6-Chloroindol-3-yl)-1-(4-ethoxy-3,5-dimethoxyphenyl)-2-methyl-2-propen-1-one] | 
6.6 nM | COc1cc(C(=O)C(C)=Cc2c[nH]c3ccccc23)cc(Br)c1OC [Compound 10, 1-(3-Bromo-4-dimethoxyphenyl)-3-(indol-3-yl)-2-methyl-2-propen-1-one] | 
2.3 nM | COc1cc(C(=O)C(C)=Cc2c[nH]c3cc(C)ccc23)cc2c1OCO2 [Compound 12, 1-(3-Methoxy-4,5-methylenedioxyphenyl)-2-methyl-3-(6-methylindol-3-yl)-2-propen-1-one] | 
2.5 nM | CCOc1c(OC)cc(C(=O)C(C)=Cc2c[nH]c3ccccc23)cc1OC [Compound 5, 1-(4-Ethoxy-3,5-dimethoxyphenyl)-3-(indol-3-yl)-2-methyl-2-propen-1-one] | ILS (%) [Dose (mg/kg)] five consec. admin. ([2]; dose 3.1 mg/kg): 41 ( 3.1) %
